# Experimental data published in ChEMBL document CHEMBL4602719, “Discovery of Potent, Selective, and Orally Bioavailable Inhibitors of USP7 with In Vivo Antitumor Activity” (J Med Chem, 2020).
# Tests used:
# [1] = biological target: T1, Ubiquitin carboxyl-terminal hydrolase 7 (Homo sapiens, UniProt Q93009); experiment: Inhibition of recombinant full length USP7 (unknown origin) using ubiquintin-rhodamine as substrate preincubated for 30 mins followed by substrate addition measured after 1 hr by fluorescence-based Envision plate reader assay
# [2] = biological target: T2, Ubiquitin carboxyl-terminal hydrolase 47 (Homo sapiens, UniProt Q96K76); experiment: Inhibition of USP47 (unknown origin) by biochemical assay
# T2 sequence (Q96K76 whole entry): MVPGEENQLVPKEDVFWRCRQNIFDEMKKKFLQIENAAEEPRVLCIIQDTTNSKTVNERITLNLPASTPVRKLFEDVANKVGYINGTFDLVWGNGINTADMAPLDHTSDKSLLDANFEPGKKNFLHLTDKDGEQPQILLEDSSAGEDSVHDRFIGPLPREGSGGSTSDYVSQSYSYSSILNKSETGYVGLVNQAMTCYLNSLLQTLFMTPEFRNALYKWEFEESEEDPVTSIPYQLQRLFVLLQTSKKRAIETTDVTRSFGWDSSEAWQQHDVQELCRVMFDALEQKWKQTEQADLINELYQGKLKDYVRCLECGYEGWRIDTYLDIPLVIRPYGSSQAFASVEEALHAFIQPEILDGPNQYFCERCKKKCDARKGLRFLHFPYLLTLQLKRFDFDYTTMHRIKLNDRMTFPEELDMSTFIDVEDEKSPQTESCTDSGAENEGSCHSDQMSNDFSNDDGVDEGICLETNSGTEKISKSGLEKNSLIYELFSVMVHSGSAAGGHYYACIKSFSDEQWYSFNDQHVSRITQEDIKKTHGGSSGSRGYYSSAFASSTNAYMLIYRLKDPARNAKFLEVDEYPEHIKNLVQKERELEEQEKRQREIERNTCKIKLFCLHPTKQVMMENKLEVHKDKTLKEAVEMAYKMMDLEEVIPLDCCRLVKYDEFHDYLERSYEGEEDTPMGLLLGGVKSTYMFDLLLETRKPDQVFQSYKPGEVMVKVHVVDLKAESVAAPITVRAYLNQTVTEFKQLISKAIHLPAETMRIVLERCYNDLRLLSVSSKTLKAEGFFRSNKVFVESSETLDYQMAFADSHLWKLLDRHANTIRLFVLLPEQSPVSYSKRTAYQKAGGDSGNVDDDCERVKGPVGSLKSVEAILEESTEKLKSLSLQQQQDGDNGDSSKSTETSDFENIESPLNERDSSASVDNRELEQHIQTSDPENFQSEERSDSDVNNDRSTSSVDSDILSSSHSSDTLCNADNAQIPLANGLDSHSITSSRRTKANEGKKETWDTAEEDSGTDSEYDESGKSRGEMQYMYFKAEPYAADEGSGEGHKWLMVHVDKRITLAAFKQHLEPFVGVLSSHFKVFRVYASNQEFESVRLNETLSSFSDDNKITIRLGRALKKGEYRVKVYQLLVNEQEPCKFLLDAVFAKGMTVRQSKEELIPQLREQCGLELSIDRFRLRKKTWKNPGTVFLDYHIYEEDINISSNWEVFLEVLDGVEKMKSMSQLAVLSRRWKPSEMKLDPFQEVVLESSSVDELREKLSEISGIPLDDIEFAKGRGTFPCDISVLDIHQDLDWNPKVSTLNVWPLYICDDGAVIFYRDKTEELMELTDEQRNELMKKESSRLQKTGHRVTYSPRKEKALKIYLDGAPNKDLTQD
# [3] = biological target: T1, Ubiquitin carboxyl-terminal hydrolase 7; experiment: Inhibition of USP7 in human RKO cells transfected with p53 luciferase reporter vector assessed as increase in p53-dependent luciferase activity measured after 18 hrs by BrightGlo luciferase assay; type: cell-based
# [4] = tested on: MM1.S; experiment: Cytotoxicity against human MM1S cells expressing wild type p53 assessed as reduction in cell viability measured after 5 days by CellTiter-Glo assay; type: functional; conditions: 120 h
# [5] = biological target: T3, Ubiquitin carboxyl-terminal hydrolase 1 (Homo sapiens, UniProt O94782); experiment: Inhibition of His6-tagged human USP1 expressed in insect Sf21 cells coexpressing untagged UAF1 assessed as cleavage of Ubiquitin-Rhodamine110-glycine to Ubiquitin and Rhodamine110-glycine using Ubiquitin-Rhodamine110-glycine as substrate by fluorescence based analysis
# T3 sequence (O94782 whole entry): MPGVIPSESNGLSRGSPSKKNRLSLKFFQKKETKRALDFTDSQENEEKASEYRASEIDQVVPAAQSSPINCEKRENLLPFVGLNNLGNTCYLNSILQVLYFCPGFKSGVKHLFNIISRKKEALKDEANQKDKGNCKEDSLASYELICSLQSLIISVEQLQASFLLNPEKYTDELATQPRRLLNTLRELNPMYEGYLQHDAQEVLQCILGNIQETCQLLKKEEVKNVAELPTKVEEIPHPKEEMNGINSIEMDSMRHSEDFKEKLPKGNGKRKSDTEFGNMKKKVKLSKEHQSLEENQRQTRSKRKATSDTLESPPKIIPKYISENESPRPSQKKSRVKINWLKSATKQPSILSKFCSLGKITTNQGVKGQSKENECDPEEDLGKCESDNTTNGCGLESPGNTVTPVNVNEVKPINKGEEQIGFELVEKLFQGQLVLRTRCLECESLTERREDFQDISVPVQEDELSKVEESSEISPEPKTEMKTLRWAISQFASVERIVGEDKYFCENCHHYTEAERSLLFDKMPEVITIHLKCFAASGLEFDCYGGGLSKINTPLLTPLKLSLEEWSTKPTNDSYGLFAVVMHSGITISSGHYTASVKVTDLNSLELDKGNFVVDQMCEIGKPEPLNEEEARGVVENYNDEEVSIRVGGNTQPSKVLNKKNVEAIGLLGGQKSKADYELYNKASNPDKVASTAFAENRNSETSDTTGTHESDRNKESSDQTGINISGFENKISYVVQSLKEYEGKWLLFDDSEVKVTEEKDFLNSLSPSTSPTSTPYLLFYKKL
# [6] = Stability of compound in rat hepatocytes assessed as parent compound remaining incubated for 60 mins; type: ADME, cell-based, Hepatocyte; conditions: read-out: Stability
# [7] = Stability of compound in human hepatocytes assessed as parent compound remaining incubated for 60 mins; type: ADME, cell-based, Hepatocyte; conditions: read-out: Stability
# [8] = Clearance in Sprague-Dawley rat at 0.5 mg/kg, iv; type: ADME, organism-based; conditions: in vivo
# [9] = AUC in Sprague-Dawley rat at 2 mg/kg, po; type: ADME, organism-based; conditions: in vivo
# [10] = tested on: NCI-H526; experiment: Cytotoxicity against human NCI-H526 cells expressing p53 mutant assessed as reduction in cell viability measured after 5 days by CellTiter-Glo assay; type: functional; conditions: NCI-H526, 120 h
# [11] = biological target: Voltage-gated inwardly rectifying potassium channel KCNH2 (Homo sapiens, UniProt Q12809); experiment: Inhibition of human ERG
# Voltage-gated inwardly rectifying potassium channel KCNH2, sequence (Q12809 whole entry): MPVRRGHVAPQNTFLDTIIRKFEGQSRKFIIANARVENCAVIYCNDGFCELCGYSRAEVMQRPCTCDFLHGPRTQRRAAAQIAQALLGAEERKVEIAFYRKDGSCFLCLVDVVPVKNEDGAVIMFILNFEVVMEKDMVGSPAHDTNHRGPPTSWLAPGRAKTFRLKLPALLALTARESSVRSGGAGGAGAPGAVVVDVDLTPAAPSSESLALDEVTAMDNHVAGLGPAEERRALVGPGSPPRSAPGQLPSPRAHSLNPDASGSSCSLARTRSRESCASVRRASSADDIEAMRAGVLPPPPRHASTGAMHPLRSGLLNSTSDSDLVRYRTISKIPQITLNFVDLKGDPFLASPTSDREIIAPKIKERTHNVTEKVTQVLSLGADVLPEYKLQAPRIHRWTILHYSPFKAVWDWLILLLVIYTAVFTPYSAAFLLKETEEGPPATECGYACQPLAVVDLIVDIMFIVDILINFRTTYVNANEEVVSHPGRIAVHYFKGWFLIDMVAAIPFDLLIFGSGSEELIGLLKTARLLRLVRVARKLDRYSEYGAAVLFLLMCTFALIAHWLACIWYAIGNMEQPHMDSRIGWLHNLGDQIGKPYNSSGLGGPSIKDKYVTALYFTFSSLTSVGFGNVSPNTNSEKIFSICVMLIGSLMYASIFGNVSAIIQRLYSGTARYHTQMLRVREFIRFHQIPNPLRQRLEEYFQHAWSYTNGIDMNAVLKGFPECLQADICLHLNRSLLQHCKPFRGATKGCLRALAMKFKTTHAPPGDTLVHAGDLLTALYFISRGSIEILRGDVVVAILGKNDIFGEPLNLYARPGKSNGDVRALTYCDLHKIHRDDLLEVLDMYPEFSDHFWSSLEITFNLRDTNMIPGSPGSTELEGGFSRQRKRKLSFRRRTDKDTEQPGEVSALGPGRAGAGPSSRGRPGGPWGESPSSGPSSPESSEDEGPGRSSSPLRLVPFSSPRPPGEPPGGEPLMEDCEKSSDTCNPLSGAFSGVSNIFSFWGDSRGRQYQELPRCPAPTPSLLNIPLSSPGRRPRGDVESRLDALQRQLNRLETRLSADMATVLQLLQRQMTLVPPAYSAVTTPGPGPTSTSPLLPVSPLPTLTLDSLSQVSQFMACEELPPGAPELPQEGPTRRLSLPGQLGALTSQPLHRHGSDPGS
# T1 sequence (Q93009 whole entry): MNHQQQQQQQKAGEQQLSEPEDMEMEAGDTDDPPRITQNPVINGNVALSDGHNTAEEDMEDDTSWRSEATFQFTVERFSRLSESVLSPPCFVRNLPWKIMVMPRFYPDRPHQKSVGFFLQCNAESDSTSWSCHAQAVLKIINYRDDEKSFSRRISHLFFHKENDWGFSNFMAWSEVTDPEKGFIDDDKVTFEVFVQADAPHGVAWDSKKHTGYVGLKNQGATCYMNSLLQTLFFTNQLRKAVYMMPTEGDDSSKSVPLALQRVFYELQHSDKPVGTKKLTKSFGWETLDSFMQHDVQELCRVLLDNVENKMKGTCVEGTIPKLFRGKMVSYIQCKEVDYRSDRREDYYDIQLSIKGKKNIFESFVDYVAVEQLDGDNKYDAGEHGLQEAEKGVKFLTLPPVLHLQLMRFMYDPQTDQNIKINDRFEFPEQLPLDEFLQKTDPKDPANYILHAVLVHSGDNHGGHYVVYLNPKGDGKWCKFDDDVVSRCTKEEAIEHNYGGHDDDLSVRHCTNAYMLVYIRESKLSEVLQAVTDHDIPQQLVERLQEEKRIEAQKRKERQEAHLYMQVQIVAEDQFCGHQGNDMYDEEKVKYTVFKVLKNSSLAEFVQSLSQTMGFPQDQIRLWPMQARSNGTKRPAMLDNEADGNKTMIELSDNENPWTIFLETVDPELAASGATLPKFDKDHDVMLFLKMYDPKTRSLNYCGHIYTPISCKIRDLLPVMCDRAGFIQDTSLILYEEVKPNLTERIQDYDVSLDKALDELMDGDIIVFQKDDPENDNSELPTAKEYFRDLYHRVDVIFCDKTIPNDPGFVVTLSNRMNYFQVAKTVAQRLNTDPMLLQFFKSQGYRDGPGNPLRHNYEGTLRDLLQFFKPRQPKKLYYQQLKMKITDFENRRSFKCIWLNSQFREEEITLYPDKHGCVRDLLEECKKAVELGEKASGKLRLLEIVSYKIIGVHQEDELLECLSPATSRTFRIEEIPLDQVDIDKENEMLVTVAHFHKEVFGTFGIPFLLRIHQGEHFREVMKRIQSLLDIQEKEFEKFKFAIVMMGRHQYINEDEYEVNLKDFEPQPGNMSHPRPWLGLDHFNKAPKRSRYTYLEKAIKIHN
Structure (SMILES),IC50 [1],IC50 [2],EC50 [3],further results
O=C([C@H]1Cc2cc(Cl)cc(-c3ccnc4cc(Cn5cnccc5=O)sc34)c2O1)N1CCNCC1,27 nM,> 5000 nM,–,–
Cc1cc(Cl)cc(-c2ccnc3cc(CN4C(=O)C5CC5C4=O)sc23)c1C[C@@H]1CNC[C@@H](C)O1 (mixture of isomers),0.39 nM,–,60 nM,CC50 [4]: 120 nM
Cc1cc(Cl)cc(-c2ccnc3cc(CN4C(=O)C5CC5C4=O)sc23)c1O[C@@H]1CCNC[C@@H]1C (some centres undefined),1.1 nM,–,170 nM,–
O=C(C1Cc2cc(Cl)cc(-c3ccnc4[nH]ccc34)c2O1)N1CCNCC1 (racemic),930 nM,> 80000 nM,–,IC50 [5]: > 80000 nM
O=C([C@H]1Cc2cc(Cl)cc(-c3ccnc4cc(C(O)(CO)CCl)sc34)c2O1)N1CCNCC1 (some centres undefined),9 nM,> 40000 nM,–,–
Cn1nc2c(c1[C@H]1Cc3cc(Cl)cc(-c4ccnc5cc(CN6C(=O)CCC6=O)sc45)c3O1)CNCC2,1.1 nM,–,–,remaining at 1 h [6]: 42%; remaining at 1 h [7]: 63%; clearance [8]: 78.3 mL/min/kg
Cc1cc(Cl)cc(-c2ccnc3cc(CN4C(=O)CCC4=O)sc23)c1O[C@H]1CCCNC1,4.6 nM,–,180 nM,clearance [8]: 81.7 mL/min/kg; AUC [9]: 170 ng·h/mL
Cc1cc(Cl)cc(-c2ccnc3cc(CN4C(=O)CCC4=O)sc23)c1OC1CCNCC1,8 nM,–,400 nM,clearance [8]: 5.5 mL/min/kg; AUC [9]: 44 ng·h/mL
O=C([C@H]1Cc2cc(Cl)cc(-c3ccnc4[nH]ccc34)c2O1)N1CCNCC1,450 nM,> 80000 nM,–,IC50 [5]: > 80000 nM
Cc1cc(Cl)cc(-c2ccnc3cc(CN4C(=O)C5CC5C4=O)sc23)c1C[C@@H]1CNCCO1 (some centres undefined),0.16 nM,–,35 nM,CC50 [4]: 210 nM; CC50 [10]: 3600 nM; IC50 [11]: 8000 nM
Cc1cc(Cl)cc(-c2ccnc3cc(Cn4c(=O)ccn(CC(F)(F)F)c4=O)sc23)c1O[C@@H]1CCNC[C@@H]1C,0.26 nM,–,42 nM,clearance [8]: 16.7 mL/min/kg; AUC [9]: 52 ng·h/mL
O=C([C@H]1Cc2cc(Cl)cc(-c3ccnc4cc(CO)sc34)c2O1)N1CCNCC1,43 nM,> 40000 nM,–,IC50 [5]: > 40000 nM
Cc1cc(Cl)cc(-c2ccnc3cc(CN4C(=O)C5C(C4=O)C5(C)C)sc23)c1CC1CCCNC1 (centres undefined),1.3 nM,–,130 nM,–
O=C1CCC(=O)N1Cc1cc2nccc(-c3cc(Cl)ccc3O[C@@H]3CNC[C@@H]3F)c2s1,207 nM,–,–,–
Cc1cc(Cl)cc(-c2ccnc3cc(CN4C(=O)CCC4=O)sc23)c1O[C@@H]1CCNC[C@@H]1C,2.1 nM,–,150 nM,clearance [8]: 1.17 mL/min/kg; AUC [9]: 860 ng·h/mL
Cc1cc(Cl)cc(-c2ccnc3cc(CN4C(=O)C5C(C4=O)C5(C)C)sc23)c1OC1CCCNC1 (centres undefined),2.4 nM,–,250 nM,–

Structure (SMILES),IC50 [1],IC50 [2],EC50 [3],further results
Cc1cc(Cl)cc(-c2ccnc3cc(CN4C(=O)CCC4=O)sc23)c1O[C@H]1C[C@H](N)C1,3.4 nM,–,150 nM,–
O=C([C@H]1Cc2cc(Cl)cc(-c3ccnc4cc(C5(O)COC5)sc34)c2O1)N1CCNCC1,73 nM,> 40000 nM,–,–
O=C([C@H]1Cc2cc(Cl)cc(-c3ccnc4cc(CN5C(=O)CCC5=O)sc34)c2O1)N1CCNCC1,0.18 nM,> 2000 nM,–,remaining at 1 h [6]: 14%; remaining at 1 h [7]: 37%; clearance [8]: 192 mL/min/kg
O=C1CCCN1Cc1cc2nccc(-c3cc(Cl)cc4c3O[C@@H](C(=O)N3CCNCC3)C4)c2s1,26 nM,> 20000 nM,–,–
Cc1cc(Cl)cc(-c2ccnc3cc(CN4C(=O)C5CC5C4=O)sc23)c1C[C@H]1OCCN[C@@H]1C (mixture of isomers),1.5 nM,–,210 nM,CC50 [4]: 310 nM
Cc1cc(Cl)cc(-c2ccnc3cc(CN4C(=O)CCC4=O)sc23)c1CN1CCNC[C@@H]1C,6.6 nM,–,280 nM,–
Cc1cc(Cl)cc(-c2ccnc3cc(CN4C(=O)CCC4=O)sc23)c1O[C@@H]1CNC[C@@H]1F,1.2 nM,–,560 nM,clearance [8]: 35 mL/min/kg; AUC [9]: 130 ng·h/mL
Cc1cc(Cl)cc(-c2ccnc3cc(CN4C(=O)CCC4=O)sc23)c1CN1[C@@H](C)CNC[C@@H]1C,0.32 nM,–,60 nM,CC50 [4]: 135 nM; CC50 [10]: 2200 nM; IC50 [11]: 2700 nM
Cc1cc2nccc(-c3cc(Cl)cc4c3O[C@@H](C(=O)N3CCNCC3)C4)c2s1,130 nM,> 80000 nM,–,IC50 [5]: > 80000 nM
O=C([C@H]1Cc2cc(Cl)cc(-c3ccnc4ccsc34)c2O1)N1CCNCC1,90 nM,> 40000 nM,–,IC50 [5]: > 40000 nM
O=C1CCC(=O)N1Cc1cc2nccc(-c3cc(Cl)cc4c3O[C@@H](c3onc5c3CNCC5)C4)c2s1,0.38 nM,–,–,remaining at 1 h [6]: 4%; remaining at 1 h [7]: 26%; clearance [8]: 96.7 mL/min/kg
Cc1cc(Cl)cc(-c2ccnc3cc(CN4C(=O)CCC4=O)sc23)c1CN1CCNCC1,32 nM,–,1200 nM,–
O=C1CCC(=O)N1Cc1cc2nccc(-c3cc(Cl)cc4c3O[C@@H](c3ocnc3CN3CCC3)C4)c2s1,13 nM,–,–,remaining at 1 h [6]: 2%; remaining at 1 h [7]: 14%
Cc1cc(Cl)cc(-c2ccnc3cc(CN4C(=O)C5C(C4=O)C5(C)C)sc23)c1NC1CCCNC1 (centres undefined),0.78 nM,–,33 nM,–
CC(=O)NCc1cc2nccc(-c3cc(Cl)cc4c3O[C@@H](C(=O)N3CCNCC3)C4)c2s1,25 nM,> 80000 nM,–,–
Cc1cc(Cl)cc(-c2ccnc3cc(CN4C(=O)CCC4=O)sc23)c1OCC1(F)CNC1,1.5 nM,–,320 nM,–
